# Laboratory results reported in US7776897B2, “Triazole derivative or salt thereof” (Astellas Pharma Inc., priority 2004, dated 2010).
# Legend:
# [1] = target: human recombinant 11β-HSD1 (Homo sapiens, UniProt P28845); assay: Test for measuring human 11β-HSD1 inhibitory activity (HTRF cortisol detection); assay type: biochemical; settings: human recombinant enzyme, 200 nM cortisone, 40 μM NADPH, pH 6.6, room temperature 1 hour; average of 3 wells
# Description: (§1) (1) Test for Measuring Human 11β-HSD1/11β-HSD2 Inhibitory Activity
# (§2) The procedure for measuring human 11β-HSD1/11β-HSD2 inhibitory activity is as follows. The enzymatic reaction and measurement were performed using a 384-well plate. The reaction was carried out by adding a test compound in various concentrations to a reaction solution containing a 10 mM phosphate buffer solution (pH 6.6), 200 nM cortisone, 40 μM reduced nicotinamide adenine dinucleotide phosphate (NADPH), and human recombinant 11β-HSD1 and then incubating the mixture at room temperature for 1 hour (10 μl/well). The test compound was dissolved in dimethyl sulfoxide (DMSO) to prepare a sample so that the DMSO concentration in the reaction solution became 1%. After the enzymatic reaction, an enzymatic inhibitory activity was measured by detecting cortisol using homogeneous time-resolved fluorescence (HTRF). XL-665-labeled cortisol containing 400 μM carbenoxolone and cryptate-labeled cortisol antibody (CIS Bio International) were added in each amount of 5 μl/well, followed by incubation at room temperature for 2 hours. Then, fluorescence intensity was measured using a fluorophotometer (product name: Discovery, PerkinElmer) and an enzymatic inhibitory activity was calculated based on two-wavelength fluorescence intensity ratio (665 nm/620 nm).
# (§3) The results of the measurement were calculated as an average of the values for 3 wells obtained under the same conditions.
# [2] = target: T1, human recombinant 11β-HSD2 (Homo sapiens, UniProt P80365); assay: Test for measuring human 11β-HSD2 inhibitory activity (HTRF cortisol detection); assay type: biochemical; settings: human recombinant enzyme, 200 nM cortisol, 200 μM NAD, pH 8.0, 37° C. 2 hours; average of 3 wells
# T1 sequence (P80365 1-405): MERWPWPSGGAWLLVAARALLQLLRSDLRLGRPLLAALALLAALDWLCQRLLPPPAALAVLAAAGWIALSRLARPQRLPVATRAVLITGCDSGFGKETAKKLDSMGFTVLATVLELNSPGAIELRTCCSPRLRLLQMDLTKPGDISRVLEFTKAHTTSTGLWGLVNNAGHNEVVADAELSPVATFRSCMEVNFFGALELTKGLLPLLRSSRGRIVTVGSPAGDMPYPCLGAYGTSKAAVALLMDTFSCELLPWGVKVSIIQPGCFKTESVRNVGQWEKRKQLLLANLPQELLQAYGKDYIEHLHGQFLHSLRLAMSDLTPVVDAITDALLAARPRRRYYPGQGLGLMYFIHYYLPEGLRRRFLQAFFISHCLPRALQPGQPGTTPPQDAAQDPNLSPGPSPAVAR
# Description: as §1, §2
# The measurement of 11β-HSD2 inhibitory activity was performed in the same manner as in the measurement of 11β-HSD1 inhibitory activity except for enzymatic reaction conditions. The enzymatic reaction was carried out by adding a test compound in various concentrations to a reaction solution containing a 40 mM tris-hydrochloride buffer solution (Tris-HCl) (pH 8.0), 200 nM cortisol, 200 μM nicotinamide adenine dinucleotide (NAD), and human recombinant 11β-HSD2 and then incubating the mixture at 37° C. for 2 hours (10 μl/well).
# as §3
# ob/ob mice = assay: ob/ob mouse blood-glucose lowering test; assay type: in vivo; settings: male ob/ob mice, 30 mg/kg bid orally for 9 days, measured 12 hours after final administration, non-fasting, n=6
# Description: (2) ob/ob Mouse Blood-Glucose Lowering Test
# A compound solution was prepared using 6% 2-hydroxypropyl-p-cyclodextrin as a solvent. Using 8 weeks-old male ob/ob mice (blood-glucose level of 300 mg or more), blood-glucose levels were measured under non-fasting conditions and then the mice were divided into groups so that the blood-glucose levels became even among the groups. The test compound was orally administered twice per day repeatedly for 9 days (30 mg/kg, bid) and a blood-sugar level was measured 12 hours after final administration (n=6). The blood-glucose level was measured by subjecting a collected blood to protein-removing treatment and then conducting colorimetric quantitative determination of a glucose level (mg/dL) in the supernatant.
# Sequence of human recombinant 11β-HSD1 (P28845 whole entry): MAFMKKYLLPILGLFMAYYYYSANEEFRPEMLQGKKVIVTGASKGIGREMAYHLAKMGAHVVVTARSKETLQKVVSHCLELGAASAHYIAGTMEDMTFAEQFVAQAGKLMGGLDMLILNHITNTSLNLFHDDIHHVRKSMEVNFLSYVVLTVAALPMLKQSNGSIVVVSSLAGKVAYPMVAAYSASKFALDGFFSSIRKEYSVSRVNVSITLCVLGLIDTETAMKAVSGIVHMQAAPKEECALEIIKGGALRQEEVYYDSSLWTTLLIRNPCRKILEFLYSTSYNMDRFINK
SMILES,IC50 [1],IC50 [2],blood-glucose lowering action (ob/ob mice)
c1csc(C2(c3nnc4n3CCCCC4)CCCC2)c1 [Example 60],0.013 µM,> 3 µM,–
c1csc(C2(c3nnc4n3CCCCCC4)CCCC2)c1 [Example 68],0.0044 µM,> 1 µM,32%
CN(C1(c2nnc(-c3ccccc3Cl)n2C)CCCC1)S(=O)(=O)c1ccccc1 [Example 115],0.015 µM,–,–

# The next lines start with results.
IC50 [1],IC50 [2],SMILES,blood-glucose lowering action (ob/ob mice)
0.0053 µM,> 3 µM,Clc1ccc(C2(c3nnc4n3CCCCC4)CCCC2)s1 [Example 62],–
0.0066 µM,> 1 µM,CC(C)(c1cccs1)c1nnc2n1CCCCCC2 [Example 100],–
0.018 µM,> 3 µM,Cn1cccc1C(C)(C)c1nnc(-c2ccccc2Cl)n1C [Example 158],–
0.06 µM,–,Cn1c(-c2ccccc2Cl)nnc1C(C)(C)NC(=O)c1ccccc1 [Example 174],–
